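How tested: cells in 96-well plates exposed to compound for 48 hours at five concentrations. GI50 = concentration required for 50% inhibition of growth. TGI: total growth inhibition.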

What all share (test): NCI anticancer screen, dose series, 48 h
Assay [1] has as its system DU-145 prostate.
In assay [2] the test system is NCI/ADR-RES ovarian.
Assay [3] deals with BT-549 breast.
Assay [4] deals with HS 578T breast.
Assay [5] deals with MDA-MB-435.

Regarding `CC(=O)N[C@H](C(=O)N[C@@H](CCCNC(=N)N)C(=O)N[C@@H](CCCCN)C(=O)N[C@@H](CCCNC(=N)N)C(=O)N[C@]1(C)CCCCCC/C=C\CCC[C@@](C)(C(=O)N[C@@H](CCCNC(=N)N)C(=O)N[C@@H](CCC(=O)O)C(=O)N[C@@H](CC(C)C)C(=O)N[C@H](C(=O)N[C@@H](CCC(=O)O)C(N)=O)C(C)C)NC(=O)[C@H](CCC(N)=O)NC(=O)[C@H](CC(C)C)NC(=O)[C@H](CC(C)C)NC(=O)[C@H](CCCNC(=N)N)NC(=O)[C@H](CCCNC(=N)N)NC(=O)[C@H](CC(C)C)NC1=O)C(C)C`, the GI50 in assay [1] was 1.87 µM; in assay [2], 6.82 µM; in assay [3], 1.44 µM; in assay [4] it was 1.46 µM; in assay [5], 1.42 µM. Further, the TGI is 7.44 µM in assay [1]; above 50 µM in assay [2]; 4.35 µM in assay [3]; 4.14 µM in assay [4]; 4.28 µM in assay [5].
As for `CCN(CC)CCNC(=O)c1cn2ncnc(Oc3ccc(NC(=O)Nc4ccc(Cl)c(C(F)(F)F)c4)c(F)c3)c2c1C`, the GI50 in assay [1] is 1.72 µM; in assay [2] it was 1.95 µM; in assay [3], 1.86 µM; in assay [4], 1.52 µM; in assay [5], 1.57 µM. Besides, the TGI amounted to 3.12 µM in assay [1]; 3.82 µM in assay [2]; 3.48 µM in assay [3]; 4.29 µM in assay [4]; 3.02 µM in assay [5].
Turning to `Cc1cc(Nc2nc(SCc3ccc(C(=O)Nc4ccc(F)cc4N)cc3)nn3cccc23)n[nH]1`, the GI50 in assay [1] was 0.461 µM; in assay [2] it was 1.98 µM; in assay [3], 0.296 µM; in assay [4], 0.429 µM. For the same molecule, the TGI is above 100 µM in assay [1], above 100 µM in assay [2], 7 µM in assay [3] and above 100 µM in assay [4].
With `COc1ccccc1-c1cc(=O)c2ccc(C)nc2[nH]1`, the TGI in assay [1] was above 100 µM; in assay [2] it was above 100 µM; in assay [3] it was above 100 µM; in assay [4], above 100 µM; in assay [5], 48.7 µM. Moreover, in assay [5], the GI50 was 22 µM.
Take `OC(c1ccc(Br)cc1)(c1cccs1)C1CC1` (centres undefined): the TGI in assay [1] came to 81.6 µM; in assay [2], 60.5 µM; in assay [3], 58.2 µM; in assay [4] it was 49.5 µM; in assay [5] it was 36.1 µM.
Regarding `COc1ccc(-c2nnc(N3CCN(C(=O)CN4CCN(c5ccc(OC)cc5)CC4)CC3)nc2-c2ccc(OC)cc2)cc1`, the GI50 was 12.2 µM in assay [1]; 9.89 µM in assay [2]; 3.53 µM in assay [3]; 2.84 µM in assay [4]; 4.01 µM in assay [5]. Moreover, the TGI was 26.5 µM in assay [1]; 31.9 µM in assay [2]; 24 µM in assay [3]; 9.2 µM in assay [4]; above 55.9 µM in assay [5].
As to `Cn1cc(-c2csc(-c3cn(C)c4ccccc34)n2)c2cnccc21`, the GI50 in assay [1] is 2.13 µM; in assay [2], 1.83 µM; in assay [3], 1.68 µM; in assay [4] it was 2.16 µM; in assay [5], 1.77 µM. In addition, the TGI in assay [1] is 4.41 µM; in assay [2], 4.32 µM; in assay [3] it was 3.09 µM; in assay [4], 4.65 µM; in assay [5], 3.24 µM.
Take `COc1ccccc1/C=C/C(=O)/C=C/c1ccccc1O`: the GI50 in assay [1] is 1.02 µM; in assay [2], 2.86 µM; in assay [3] it was 1.39 µM; in assay [4], 2.25 µM; in assay [5], 1.51 µM. The TGI in assay [1] is 2.63 µM; in assay [2] it was 15 µM; in assay [3], 3.01 µM; in assay [4], 11.7 µM; in assay [5] it was 3.81 µM.
Take `COc1ccc(/C=C2/CCc3cc4ccc(OC)cc4[o+]c32)c(O)c1`: the GI50 in assay [1] is 8.15 µM; in assay [2], 4.16 µM; in assay [3] it was 12.1 µM; in assay [4], 4.28 µM; in assay [5], 1.78 µM. Besides, the TGI in assay [1] was 20.5 µM; in assay [2], 50.6 µM; in assay [3], 31.7 µM; in assay [4], 34.5 µM; in assay [5], 3.47 µM.
In the case of `OB1OCc2cc(/C=C/c3cccc(C(F)(F)F)c3)ccc21`, the GI50 in assay [1] is 0.554 µM; in assay [2] it was 0.544 µM; in assay [3] it was 2.26 µM; in assay [4], 4.49 µM; in assay [5], 5.29 µM. For the same molecule, the TGI in assay [1] is 15.3 µM; in assay [2], 23.9 µM; in assay [3] it was above 100 µM; in assay [4] it was 66.6 µM; in assay [5], above 100 µM.
`OC(CN1CC1)C(O)CN1CC1` (centres undefined): the GI50 in assay [1], in assay [2], in assay [3], in assay [4] and in assay [5] was above 50 mg/L in each case. The TGI in assay [1], in assay [2], in assay [3], in assay [4] and in assay [5] was above 50 mg/L throughout.
Regarding `Cn1c(/C(C#N)=C/c2ccc3ccccc3c2)cc2ccccc21`, the GI50 was 0.456 µM in assay [1]; 0.0648 µM in assay [2]; 0.474 µM in assay [3]; 0.162 µM in assay [4]; 0.0317 µM in assay [5]. The TGI is above 100 µM in assay [1]; above 100 µM in assay [2]; above 100 µM in assay [3]; above 100 µM in assay [4]; 0.109 µM in assay [5].
`c1ccc2nc3c(cc4ccccn43)nc2c1`: the GI50 in assay [1] is above 100 µM; in assay [2] it was above 100 µM; in assay [3] it was above 100 µM; in assay [4], 61.7 µM; in assay [5], above 100 µM. In addition, the TGI in assay [1], in assay [2], in assay [3], in assay [4] and in assay [5] was above 100 µM throughout.

Values taken from PubChem BioAssay (NCI).
